In experiment [1] the target is T1, human Adenosine A1 receptor (Homo sapiens, UniProt P30542).
T1 construct: host or cells: CHO-K1
T1 sequence (P30542 1-326): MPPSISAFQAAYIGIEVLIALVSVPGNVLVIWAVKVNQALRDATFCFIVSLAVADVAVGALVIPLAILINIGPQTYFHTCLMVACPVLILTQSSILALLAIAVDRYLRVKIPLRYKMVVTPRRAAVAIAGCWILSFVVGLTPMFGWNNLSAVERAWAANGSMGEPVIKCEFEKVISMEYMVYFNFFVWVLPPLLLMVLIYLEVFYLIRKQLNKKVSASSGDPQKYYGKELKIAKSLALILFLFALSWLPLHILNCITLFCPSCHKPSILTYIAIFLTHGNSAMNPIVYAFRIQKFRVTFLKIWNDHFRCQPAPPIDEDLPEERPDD
Nature of the experiment: GTPγS scintillation proximity assay, agonist testing. Conditions: agonist activity; membrane extracts of CHO-K1 cells expressing recombinant human A1; read-out: A1AR EC50. The format is biochemical. The gist of the method:
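Agonist-stimulated [35S]GTPγS binding to membranes of CHO-K1 cells expressing recombinant human A1 receptor, in 20 mM HEPES pH 7.4, 100 mM NaCl, 10 μg/mL saponin, with receptor-optimized MgCl2 and GDP. GTPγ[35S] 0.1 nM final with WGA SPA beads; 1 h at room temperature, then scintillation counting.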
A general note: In a scintillation proximity assay essentially only radioactivity close to the scintillant gives light.

A further experiment has as its target T2, human A2B (Homo sapiens, UniProt P29275).
T2 construct: expressed in transfected cells; host or cells: HEK293
T2 sequence (P29275 1-332): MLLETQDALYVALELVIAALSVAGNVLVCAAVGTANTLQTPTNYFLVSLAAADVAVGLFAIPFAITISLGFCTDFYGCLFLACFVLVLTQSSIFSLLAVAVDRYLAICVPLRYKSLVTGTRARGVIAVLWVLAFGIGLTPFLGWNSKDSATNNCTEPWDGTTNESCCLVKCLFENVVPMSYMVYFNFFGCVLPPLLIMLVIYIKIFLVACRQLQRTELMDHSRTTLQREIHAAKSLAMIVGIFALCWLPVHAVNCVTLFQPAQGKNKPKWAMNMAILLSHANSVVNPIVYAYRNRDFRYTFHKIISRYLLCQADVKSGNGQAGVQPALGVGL
The experiment in a line: cAMP HTRF assay for Gs coupled receptor, agonist test. Particulars: agonist activity; HEK293 cells expressing recombinant human A2B; read-out: A2BAR EC50. Format: cell-based. The gist of the method: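 Recombinant cells were incubated 30 min at room temperature with increasing agonist concentrations. Lysis buffer with cAMP-d2 and anti-cAMP cryptate was added, with 1 h at room temperature before the HTRF fluorescence ratio was read. Reference compounds were run in parallel.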
On the technique in general: Time-resolved FRET reads energy transfer from a long-lived donor to a nearby acceptor.

On to `N#Cc1c(N)nc(SCc2ncccn2)c(C#N)c1-c1ccc(OCCO)cc1` [Compound 176], for which the EC50 – broadly, the concentration giving half of the maximal effect – stood at 34 nM in experiment [1] and 7.1 nM at human A2B.

Regarding `CCOCCSc1nc(N)c(C#N)c(-c2ccc(OCCO)cc2)c1C#N` [Compound 27], the EC50 was 31.4 nM in experiment [1] and 65.9 nM at human A2B.

`N#Cc1c(N)nc(OCC2CCCCO2)c(C#N)c1-c1ccc(OC2COC2)cc1` (stereo not drawn) [Compound 299]: the EC50 (in experiment [1]; at human A2B) was above 10000 nM throughout.

`CC(O)CSc1nc(N2CCCC2)c(C#N)c(-c2ccc(OCCO)cc2)c1C#N` (stereo not drawn) [Compound 106]: the EC50 in experiment [1] is 502 nM; on human A2B it was above 10000 nM.

In the case of `COCCOc1ccc(-c2c(C#N)c(N)nc(S[C@H](C)c3cccnc3)c2C#N)cc1` [Compound 248], the EC50 in experiment [1] is 276 nM; on human A2B, above 10000 nM.

Take `CNc1nc(SCc2cccnc2)c(C#N)c(-c2ccc(OCCOC)cc2)c1C#N` [Compound 284]: the EC50 (in experiment [1]; at human A2B) was above 10000 nM throughout.

For the compound `N#Cc1c(N)nc(SCc2cccc3occc23)c(C#N)c1-c1ccc(OCCO)cc1` [Compound 7], the EC50 in experiment [1] was above 10000 nM; at human A2B, 150 nM.

Turning to `COCCOc1ccc(-c2c(C#N)c(SCc3cccnc3)nc(N3CC(F)C3)c2C#N)cc1` [Compound 277], the EC50 is 23.9 nM in experiment [1] and above 10000 nM on human A2B.

For `N#Cc1c(N)nc(SCc2cccnc2)c(C#N)c1-c1ccc(O[C@H]2C[C@H](O)C2)cc1` [Compound 295, 2-Amino-4-(4-((1r,3r)-3-hydroxycyclobutoxy)phenyl)-6-((pyridin-3-ylmethyl)thio)pyridine-3,5-dicarbonitrile], the values for the half-maximal effective concentration (EC50) (in experiment [1]; at human A2B) were 1.6 nM and 9.79 nM, respectively.

Turning to `CC(C)(O)COc1ccc(-c2c(C#N)c(N)nc(SCc3cccnc3)c2C#N)cc1` [Compound 51], the results for the EC50 (in experiment [1]; on human A2B) were 38 nM and 5.1 nM, respectively.

As for `COCCOc1ccc(-c2c(C#N)c(N)nc(SCc3cccnn3)c2C#N)cc1` [Compound 195], the figures for the EC50 (in experiment [1]; on human A2B) were 9.7 nM and above 10000 nM, respectively.

`N#Cc1c(N)nc(SCc2cccnc2)c(C#N)c1-c1ccc(O[C@H]2C[C@@H](O)C2)cc1` [Compound 296, 2-Amino-4-(4-((1s,3s)-3-hydroxycyclobutoxy)phenyl)-6-((pyridin-3-ylmethyl)thio)pyridine-3,5-dicarbonitrile]: the EC50 in experiment [1] was 20.6 nM; on human A2B it was 2.47 nM.

With `COCCOc1ccc(-c2c(C#N)c(N)nc(SCCO)c2C#N)cc1` [Compound 192], the values for the 50% effective concentration (EC50) (in experiment [1]; at human A2B) were 25 nM and above 10000 nM, respectively.

In the case of `N#Cc1c(SCc2cccnc2)nc(N2CC(F)(F)C2)c(C#N)c1-c1ccc(OC(F)(F)CO)cc1` [Compound 256], the EC50 (in experiment [1]; on human A2B) was above 10000 nM in each case.

With `N#Cc1c(N)nc(SCCC(F)(F)F)c(C#N)c1-c1ccc(OC2CCOC2)cc1` (stereo not drawn) [Compound 220], the EC50 (in experiment [1]; on human A2B) was above 10000 nM each time.

Take `COCCOc1ccc(-c2c(C#N)c(SCc3cnccn3)nc(N3CCC3)c2C#N)cc1` [Compound 21]: the results for the EC50 (in experiment [1]; at human A2B) were 3520 nM and above 10000 nM, respectively.

Take `N#Cc1c(N)nc(SCC2CCOCC2)c(C#N)c1-c1ccc(OC2COC2)cc1` [Compound 305]: the 50% effective concentration (EC50) worked out at 140 nM in experiment [1] and 1120 nM at human A2B.

As for `CN(C)c1nc(SCC2COC2)c(C#N)c(-c2ccc(OC3COC3)cc2)c1C#N` [Compound 318], the EC50 in experiment [1] is 32.1 nM; at human A2B it was above 10000 nM.

`COCCOc1ccc(-c2c(C#N)c(SCc3cncnc3)nc(N3CC(F)C3)c2C#N)cc1` [Compound 249]: the concentration giving a half-maximal response (EC50) (in experiment [1]; on human A2B) was above 10000 nM each time.

For `N#Cc1c(SCC2COC2)nc(N2CCC2)c(C#N)c1-c1ccc(OC2COC2)cc1` [Compound 293], the figures for the concentration giving a half-maximal response (EC50) (in experiment [1]; on human A2B) were 73.2 nM and above 10000 nM, respectively.

`COCCOc1ccc(-c2c(C#N)c(Sc3cccnc3)nc(N3CC(F)C3)c2C#N)cc1` [Compound 245]: the EC50 in experiment [1] is 2.05 nM; at human A2B, above 10000 nM.

For `COCCOc1ccc(-c2c(C#N)c(SCc3cccnc3)nc(N(C)C)c2C#N)cc1` [Compound 286], the EC50 (in experiment [1]; at human A2B) was above 10000 nM each time.

With `COCCOc1ccc(-c2c(C#N)c(N)nc(SCc3ccnnc3)c2C#N)cc1` [Compound 194], the values for the EC50 (in experiment [1]; on human A2B) were 71 nM and above 10000 nM, respectively.

As for `N#Cc1cnc(SCC2CCCO2)c(C#N)c1-c1ccc(OCCO)cc1` (stereo not drawn) [Compound 1], the EC50 in experiment [1] was above 10000 nM; on human A2B, 5850 nM.

For `N#Cc1c(N)nc(SCC2CCOC2)c(C#N)c1-c1ccc(OC2COC2)cc1` (stereo not drawn) [Compound 24], the values for the EC50 (in experiment [1]; at human A2B) were 9.8 nM and above 10000 nM, respectively.

As for `COCCOc1ccc(-c2c(C#N)c(N)nc(S[C@@H](C)c3ccccn3)c2C#N)cc1` [Compound 244], the EC50 (in experiment [1]; on human A2B) was above 10000 nM in each case.

Regarding `N#Cc1c(N)nc(CCc2cccnc2)c(C#N)c1-c1ccc(OCCO)cc1` [Compound 125], the EC50 in experiment [1] was above 10000 nM; at human A2B it was 468 nM.

`CNc1nc(SCc2cccnc2)c(C#N)c(-c2ccc(OCCOC(F)F)cc2)c1C#N` [Compound 258]: the EC50 (in experiment [1]; on human A2B) was above 10000 nM throughout.

Regarding `N#Cc1c(SCCO)nc(N2CCCC2)c(C#N)c1-c1ccc(OCCO)cc1` [Compound 95], the EC50 worked out at 276 nM in experiment [1] and 459 nM at human A2B.

Regarding `COCCOc1ccc(-c2c(C#N)c(N)nc(SCc3ccnc4[nH]ccc34)c2C#N)cc1` [Compound 4], the EC50 was above 10000 nM in experiment [1] and 2410 nM at human A2B.

In the case of `N#Cc1cnc(SCc2cccnc2)c(C#N)c1-c1ccc(OC2COC2)cc1` [Compound 18], the EC50 in experiment [1] was 69.5 nM; on human A2B it was 299 nM.

Regarding `COCCOc1ccc(-c2c(C#N)c(SCC3COC3)nc(N3CC(F)C3)c2C#N)cc1` [Compound 267], the values for the EC50 (in experiment [1]; at human A2B) were 77 nM and above 10000 nM, respectively.

Consider `N#Cc1c(N)nc(SCC2CCCOC2)c(C#N)c1-c1ccc(OCCO)cc1` (stereo not drawn) [Compound 13], for which the EC50 is above 10000 nM in experiment [1] and 272 nM at human A2B.

As for `N#Cc1c(N)nc(SC2CCOCC2)c(C#N)c1-c1ccc(OCCO)cc1` [Compound 32], the EC50 in experiment [1] is 890 nM; at human A2B, above 10000 nM.

`COCCOc1ccc(-c2c(C#N)c(SCc3cccnc3)nc(N3CCCC3)c2C#N)cc1` [Compound 107]: the 50% effective concentration (EC50) in experiment [1] was 97 nM; at human A2B, above 10000 nM.

For `N#Cc1c(N)nc(SCc2cccnn2)c(C#N)c1-c1ccc(OCCO)cc1` [Compound 178], the figures for the EC50 (in experiment [1]; at human A2B) were 1.5 nM and 0.06 nM, respectively.

Turning to `COCCOc1ccc(-c2c(C#N)c(SCc3cncnc3)nc(N3CCC3)c2C#N)cc1` [Compound 30], the EC50 in experiment [1] is 3090 nM; at human A2B, above 10000 nM.

Consider `CC1(CSc2nc(N)c(C#N)c(-c3ccc(OC4COC4)cc3)c2C#N)COC1` [Compound 327], for which the values for the EC50 (in experiment [1]; on human A2B) were 22.1 nM and above 10000 nM, respectively.

On to `N#Cc1c(N)nc(SCc2ccccc2)c(C#N)c1-c1ccc(OCCO)cc1` [Compound 150], for which the EC50 in experiment [1] is 12 nM; on human A2B, 4.2 nM.

Take `COCCOc1ccc(-c2c(C#N)c(SCCO)nc(N3CCC3)c2C#N)cc1` [Compound 89]: the EC50 is 819 nM in experiment [1] and above 10000 nM at human A2B.

As to `CC(O)COc1ccc(-c2c(C#N)c(N)nc(SCC3COC3)c2C#N)cc1` (stereo not drawn) [Compound 316], the half-maximal effective concentration (EC50) in experiment [1] was 10.8 nM; on human A2B it was 305 nM.

Take `N#Cc1c(N)nc(SCCO)c(C#N)c1-c1ccc(OCCO)cc1` [Compound 177]: the EC50 in experiment [1] was 57 nM; at human A2B, 18 nM.

On to `N#Cc1c(N)nc(SC2CCOCC2)c(C#N)c1-c1ccc(OC2COC2)cc1` [Compound 31], for which the EC50 was 596 nM in experiment [1] and above 10000 nM on human A2B.

With `CN(C)c1nc(SCc2cccnc2)c(C#N)c(-c2ccc(OC(F)(F)CO)cc2)c1C#N` [Compound 254], the EC50 (in experiment [1]; at human A2B) was above 10000 nM each time.

As to `N#Cc1c(N)nc(SCC2OCCCO2)c(C#N)c1-c1ccc(OC2COC2)cc1` [Compound 291], the EC50 in experiment [1] was determined as 208 nM; at human A2B it was 9890 nM.

With `N#Cc1c(N)nc(SCc2cncc3[nH]ccc23)c(C#N)c1-c1ccc(OCCO)cc1` [Compound 2], the EC50 is above 10000 nM in experiment [1] and 0.28 nM at human A2B.

Consider `CN(Cc1cccnc1)c1nc(N)c(C#N)c(-c2ccc(OCCO)cc2)c1C#N` [Compound 160], for which the EC50 in experiment [1] was 130 nM; at human A2B, 56 nM.

With `CNC(=O)CSc1nc(N)c(C#N)c(-c2ccc(OCCOC)cc2)c1C#N` [Compound 146], the figures for the EC50 (in experiment [1]; at human A2B) were 177 nM and 59 nM, respectively.

Source of the values: patent US20250170112A1, “ADENOSINE LIGANDS FOR THE TREATMENT OF NEUROLOGICAL DISORDERS” (Lucy Therapeutics, Inc., priority 2022, published 2025).
